In brackets after ≈: the same amount, converted by molar mass.
Key:
Type in all cases: cell-based, human
PBMCs [1] = test: Cytolytic assay: killing of CFSE-labeled K562 target cells by TPP-treated PBMCs
Experimental: The K562 cell line was used as a target in a cytolytic assay. K562 cells were purchased from ATCC (Manassas Va., USA) and grown in RPMI complete media. One vial of cryopreserved PBMCs was thawed and washed, and a live cell count was taken. Different concentrations of TPPs were prepared in 100 μL media. 1.5×10^6 PBMCs in a 50 μL volume were added to each well and incubated for 1.5 h at 37° C. in 96-well round bottom plates. K562 target cells were labeled with carboxy fluorescein succinimidyl ester (CFSE) and added at a density of 100,000 cells/well (target:effector ratio is 1:15). Cell co-cultures were incubated at 37° C. for an additional 4 h. Immediately after the incubation period, cells were stained with 7AAD (which labels the dead cells) and the killing of CFSE-labeled K562 target cells was evaluated after 7AAD staining by flow cytometric analysis (BD Biosciences, San Jose, Calif.). Flow data were analyzed using Flow Jo software (Tree Star, Ashland, Oreg.).

NK cells [2] = test: TNF-α+ NK cells in poly I:C- and LPS-stimulated PBMCs treated with TPPs
Experimental: (§2) Cells were washed after 3 h treatment and re-plated in a 48-well plate at 1 million cells/well/mL with and without the presence of 10 μg/mL polyinosinic:polycytidylic acid (poly I:C) or lipopolysaccharide (LPS). After a 67 h incubation, supernatants were taken for secreted cytokine analysis. Cells were plated onto a 96-well plate at 1×10^6/mL and further incubated for 4 h with 200 μL of media with Golgiplug (1 μg/mL) (BD Biosciences, San Jose, Calif.) to measure intracellular cytokines. Cells were then harvested, washed and surface stained for CD56-PE and CD2-FITC, CD69-APC monoclonal antibodies (mAB) for 30 min at 4° C. After washing, cells were fixed and permeabilized with BD Biosciences Cytofix/Cytoperm buffer for 20 min on ice in the dark. Cells were then stained with anti-IFN-γ-PE, anti-TNF-α-APC and anti-perforin-FITC mAB and incubated for an additional 30 min on ice. After washing the cells, they were re-suspended in a total volume of 200 μL of 2% paraformaldehyde for FACS analysis. Forward scatter, side scatter, fluorescence intensity and percent positivity were measured after acquiring 100,000 cells per sample by flow cytometry (BD Biosciences, San Jose, Calif.), and the data were analyzed using Cell Quest (BD Biosciences, San Jose, Calif.) and Flow Jo (Tree Star, Ashland, Oreg.) software.

PBMCs [3] = test: Intracellular cytokine-positive cells after 6 h LPS plus Golgiplug (modified protocol); details: total 6 h
Experimental: (§1) Previous methods utilized stimulation with TLR agonists (LPS is for […] and Poly I:C is for TLR3) for 67 h to measure intracellular cytokines and secreted cytokines.

PBMCs [4] = test: Cell death / viability of PBMCs by 7AAD staining (flow cytometry)
PBMCs [5] = test: IL-8 secretion by ELISA after LPS stimulation; details: 2 mg/mL
Experimental: Suppression of cytokines was also evident with nicotine. […] Next were measured IL-8 levels in the same samples as above using an ELISA assay.

NK cells [6] = test: CD69 expression in NK cells of TPP-treated PBMCs (flow cytometry); details: 1650 μg/mL
Experimental: Cells were washed after 3 h treatment and re-plated in a 48-well plate at 1 million cells/well/mL with and without the presence of 10 μg/mL polyinosinic:polycytidylic acid (poly I:C) or lipopolysaccharide (LPS). After a 67 h incubation, supernatants were taken for secreted cytokine analysis. Cells were plated onto a 96-well plate at 1×10^6/mL and further incubated for 4 h with 200 μL of media with Golgiplug (1 μg/mL) (BD Biosciences, San Jose, Calif.) to measure intracellular cytokines. Cells were then harvested, washed and surface stained for CD56-PE and CD2-FITC, CD69-APC monoclonal antibodies (mAB) for 30 min at 4° C. After washing, cells were fixed and permeabilized with BD Biosciences Cytofix/Cytoperm buffer for 20 min on ice in the dark. […] Forward scatter, side scatter, fluorescence intensity and percent positivity were measured after acquiring 100,000 cells per sample by flow cytometry (BD Biosciences, San Jose, Calif.), and the data were analyzed using Cell Quest (BD Biosciences, San Jose, Calif.) and Flow Jo (Tree Star, Ashland, Oreg.) software.
CD69 is an early inducible cell surface glycoprotein expressed during lymphoid activation and is involved in NK cell function. PBMCs were treated with TPPs, and CD69 expression on NK cell population was analyzed by flow cytometry after poly I:C and LPS stimulation.

PBMCs [7] = test: Secreted cytokines by CBA after 24 h LPS stimulation (modified protocol)
Experimental: as §1
To measure immunomodulatory effects, PBMCs were stimulated with LPS for different time periods and the secreted cytokines were measured by cytometric bead array (CBA) method. To establish LPS stimulation time, PBMCs were exposed to LPS stimulation for 4 h, 24 h, 48 h and 72 h and secreted cytokines were measured.

PBMCs and NK cells = test: Perforin levels in TPP-treated total PBMCs and NK cells; details: PBMC populations or NK cells
Experimental: as §2

T cells = test: Intracellular TNF-α and IFN-γ positive T cells in TPP-treated PBMCs stimulated with poly I:C or LPS (flow cytometry)
Experimental: Dosing was based on an equi-nicotine exposure paradigm. Cells were washed after 3 h treatment and re-plated in a 48-well plate at 1 million cells/well/mL with and without the presence of 10 μg/mL polyinosinic:polycytidylic acid (poly I:C) or lipopolysaccharide (LPS). After a 67 h incubation, supernatants were taken for secreted cytokine analysis. Cells were plated onto a 96-well plate at 1×10^6/mL and further incubated for 4 h with 200 μL of media with Golgiplug (1 μg/mL) (BD Biosciences, San Jose, Calif.) to measure intracellular cytokines. Cells were then harvested, washed and surface stained for CD56-PE and CD2-FITC, CD69-APC monoclonal antibodies (mAB) for 30 min at 4° C. After washing, cells were fixed and permeabilized with BD Biosciences Cytofix/Cytoperm buffer for 20 min on ice in the dark. Cells were then stained with anti-IFN-γ-PE, anti-TNF-α-APC and anti-perforin-FITC mAB and incubated for an additional 30 min on ice. After washing the cells, they were re-suspended in a total volume of 200 μL of 2% paraformaldehyde for FACS analysis. Forward scatter, side scatter, fluorescence intensity and percent positivity were measured after acquiring 100,000 cells per sample by flow cytometry (BD Biosciences, San Jose, Calif.), and the data were analyzed using Cell Quest (BD Biosciences, San Jose, Calif.) and Flow Jo (Tree Star, Ashland, Oreg.) software.
It was sought to evaluate intracellular cytokine levels in T cells after treating with combustible and non-combustible TPPs. In a first set of experiments, measured was the induction of intracellular TNF-α and IFN-γ by flow cytometry after PBMCs were treated with TPPs and stimulated with either poly I:C or LPS.
It was assessed whether the pretreatment of PBMCs with TPPs compromised their ability to produce TNF-α^+ cells when stimulated with poly I:C and LPS.
Evaluated also were changes in the number of IFN-γ^+ T cells with TPP treatment followed by poly I:C and LPS stimulation.

SMILES: CN1CCCC1c1cccnc1 (centres unmarked) [nicotine]
- target cell killing ability (PBMCs [1]; K562 targets, target:effector 1:15): did not reduce
- cell killing (K562 targets) (PBMCs [1]; low and high doses): did not interfere
- changes in TNF-α+ NK cells (NK cells [2]; higher dose (1650 μg/mL), after LPS stimulation): statistically significant reduction
- changes in TNF-α+ NK cells (NK cells [2]; lower doses (10 and 500 μg/mL)): did not induce statistically significant changes
- IFN-γ-positive cells, TNF-α-positive cells and MIP-1α-positive cells (PBMCs [3]): dose-dependent percent reduction
- cell death (PBMCs [4]; 3 h, 2000 μg/mL): 8%
- cell death (PBMCs [4]; 24 h, 3,000 μg/mL nicotine, comparable to near 80%): comparable degree of cell death
- EC50 (PBMCs [4]; Homo sapiens, PBMC, 7AAD positive staining of PBMCs, 24 h assay, neat nicotine, read-out: EC50 (concentration at which 50% of the cells were no longer viable)): 1650 µg/mL (≈ 10.2 mM)
- IL-8 secretion, suppressive effects (PBMCs [5]): significant
- basal levels of the induction of CD69 relative to untreated cells (NK cells [6]): did not increase
- secreted cytokines (PBMCs [7]; LPS stimulation, 24 h): dose-dependent decrease
- secreted IL-6 (PBMCs [7]; highest concentration (4 mg/mL) tested, LPS 24 h): suppressed
- secreted IFN-γ (PBMCs [7]; range of concentrations up to 500 μg/mL of nicotine, LPS 24 h): significantly suppressed
- changes in perforin levels (PBMCs and NK cells): did not result in statistically significant changes
- basal levels of TNF-α+ T cells (T cells; 1650 μg/mL, basal (unstimulated)): higher basal levels
- TNF-α+ T cell numbers (T cells; 10-1650 μg/mL, poly I:C and LPS stimulation): did not yield statistically significant differences
- IFN-γ+ T cells (cytokine-positive cells) (T cells; only at the highest concentrations, changes not statistically significant): Measurable suppression
